Data reported in patent US20220241207A1, “EXTENDED-RELEASE SOLID ORAL DOSAGE FORM COMPRISING VITAMIN B12 AND A VITAMIN B12 DEPLETING DRUG” (DSM IP ASSETS B.V., priority 2019, published 2022).

Experimental: The solubilization medium was: • SIF (simulated intestinal fluid, pH=6.8, prepared according to Ph. Eur.)
The dissolution medium was heated to 37° C. and the analyses were performed at this temperature. During the analyses, the salts were added in access to the solubilization media and left to mix for 24 h. Afterwards, the solutions were filtered, and the precipitates were investigated using ATR-IR analysis to confirm the presence of the starting material (e.g. respective Ca salt). Attenuated total reflection (ATR) is a sampling technique used in conjunction with infrared spectroscopy which enables samples to be examined directly in the solid or liquid state without further preparation. The filtered solutions were analysed for Ca^2+ ions content.

With “dicalciumphosphat anhydrous [dicalcium phosphate anhydrous]” the “Ca^2+ ions average” value was 0.028 mg/mL and the solubility average (pH 6.8) was 90 µg/mL.
